We go through 25 compounds from BindingDB's records for doi:10.1021/jm0500875 (Pfizer, 2005).

Where a name gives a salt, the structure may show the parent alone.

Holding throughout (assay): Enzyme Inhibition Assay
The target in one assay is T1, Interstitial collagenase (Homo sapiens, UniProt P03956).
T1 sequence (P03956 whole entry): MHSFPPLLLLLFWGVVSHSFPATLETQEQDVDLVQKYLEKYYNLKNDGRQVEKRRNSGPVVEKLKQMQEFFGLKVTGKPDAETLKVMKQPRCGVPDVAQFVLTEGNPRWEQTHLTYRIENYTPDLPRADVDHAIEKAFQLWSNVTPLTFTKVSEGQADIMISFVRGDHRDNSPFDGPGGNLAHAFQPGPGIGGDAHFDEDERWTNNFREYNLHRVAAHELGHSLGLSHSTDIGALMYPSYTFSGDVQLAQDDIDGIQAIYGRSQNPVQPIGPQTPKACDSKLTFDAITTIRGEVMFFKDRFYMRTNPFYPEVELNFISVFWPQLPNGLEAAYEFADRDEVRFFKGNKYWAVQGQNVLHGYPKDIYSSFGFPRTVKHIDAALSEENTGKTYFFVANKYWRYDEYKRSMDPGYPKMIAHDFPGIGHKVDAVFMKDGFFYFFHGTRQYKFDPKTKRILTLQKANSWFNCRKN
How it is done: (§1) Inhibitors were assayed against purified hMMP-1, hMMP-2, hMMP-3, hMMP-8, hMMP-9, and hMMP-13 using an enzyme assay based on cleavage of the quenched fluorogenic peptide substrate. The increase in fluorescence due to cleavage of the substrate was measured with a fluorescence microplate reader. The Ki values were calculated by nonlinear regression analysis using the percent inhibition, and Km values of the substrates for each MMP.

For the next assay, the target named is Stromelysin-1 (Homo sapiens, UniProt P08254). The procedure: as §1
In the next assay the target is Neutrophil collagenase (Homo sapiens, UniProt P22894). The procedure: as §1
Assay [1] has as its target Matrix metalloproteinase-9 (Homo sapiens, UniProt P14780). The procedure:
as §1

Assay [2] addresses 72 kDa type IV collagenase (Homo sapiens, UniProt P08253). How it is done: as §1
The next assay concerns the target Collagenase 3 (Homo sapiens, UniProt P45452). The procedure:
as §1

Chain of Neutrophil collagenase (P22894 whole entry): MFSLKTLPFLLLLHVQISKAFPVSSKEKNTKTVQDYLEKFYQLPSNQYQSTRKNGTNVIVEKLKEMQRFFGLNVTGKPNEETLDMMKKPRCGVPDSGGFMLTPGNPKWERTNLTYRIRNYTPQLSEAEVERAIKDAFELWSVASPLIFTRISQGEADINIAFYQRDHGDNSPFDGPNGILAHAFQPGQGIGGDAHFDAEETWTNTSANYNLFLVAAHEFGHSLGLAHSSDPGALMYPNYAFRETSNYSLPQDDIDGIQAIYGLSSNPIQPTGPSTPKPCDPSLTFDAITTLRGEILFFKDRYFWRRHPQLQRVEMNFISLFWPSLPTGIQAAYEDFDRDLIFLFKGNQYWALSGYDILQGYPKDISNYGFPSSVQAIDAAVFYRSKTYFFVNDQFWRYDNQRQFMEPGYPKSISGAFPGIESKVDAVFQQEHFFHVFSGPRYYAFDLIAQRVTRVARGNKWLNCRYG
Chain of Stromelysin-1 (P08254 whole entry): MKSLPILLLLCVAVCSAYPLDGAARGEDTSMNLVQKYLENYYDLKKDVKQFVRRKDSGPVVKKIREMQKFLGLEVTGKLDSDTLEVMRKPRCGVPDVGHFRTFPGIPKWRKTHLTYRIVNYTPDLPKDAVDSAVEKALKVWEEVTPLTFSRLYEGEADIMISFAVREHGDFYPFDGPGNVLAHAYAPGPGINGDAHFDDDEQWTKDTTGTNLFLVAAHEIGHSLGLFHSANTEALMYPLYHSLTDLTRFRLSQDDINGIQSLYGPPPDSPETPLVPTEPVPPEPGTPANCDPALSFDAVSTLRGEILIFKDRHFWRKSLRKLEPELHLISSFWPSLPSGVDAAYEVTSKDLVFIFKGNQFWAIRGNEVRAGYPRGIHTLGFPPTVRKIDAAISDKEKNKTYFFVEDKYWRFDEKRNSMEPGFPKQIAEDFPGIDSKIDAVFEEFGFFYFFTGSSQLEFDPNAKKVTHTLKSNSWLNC
Chain of 72 kDa type IV collagenase (P08253 whole entry): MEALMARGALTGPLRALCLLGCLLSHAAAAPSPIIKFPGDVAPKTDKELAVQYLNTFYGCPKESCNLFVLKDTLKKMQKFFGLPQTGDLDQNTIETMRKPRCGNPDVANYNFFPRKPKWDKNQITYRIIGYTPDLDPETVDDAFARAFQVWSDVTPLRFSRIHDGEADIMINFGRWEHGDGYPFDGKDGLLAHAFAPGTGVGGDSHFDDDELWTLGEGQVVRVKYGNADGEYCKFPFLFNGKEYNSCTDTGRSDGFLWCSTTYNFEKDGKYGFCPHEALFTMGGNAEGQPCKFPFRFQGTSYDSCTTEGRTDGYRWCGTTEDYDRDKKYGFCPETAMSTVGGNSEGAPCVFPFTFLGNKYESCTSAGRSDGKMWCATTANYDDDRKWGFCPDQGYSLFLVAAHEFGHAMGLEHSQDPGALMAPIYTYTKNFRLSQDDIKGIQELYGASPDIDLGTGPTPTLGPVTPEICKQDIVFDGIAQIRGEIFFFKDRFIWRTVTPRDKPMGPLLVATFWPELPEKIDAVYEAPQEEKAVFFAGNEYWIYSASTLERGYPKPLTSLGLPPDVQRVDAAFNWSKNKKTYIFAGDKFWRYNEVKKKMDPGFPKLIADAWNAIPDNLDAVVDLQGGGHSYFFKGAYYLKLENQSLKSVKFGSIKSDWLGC
Chain of Matrix metalloproteinase-9 (P14780 whole entry): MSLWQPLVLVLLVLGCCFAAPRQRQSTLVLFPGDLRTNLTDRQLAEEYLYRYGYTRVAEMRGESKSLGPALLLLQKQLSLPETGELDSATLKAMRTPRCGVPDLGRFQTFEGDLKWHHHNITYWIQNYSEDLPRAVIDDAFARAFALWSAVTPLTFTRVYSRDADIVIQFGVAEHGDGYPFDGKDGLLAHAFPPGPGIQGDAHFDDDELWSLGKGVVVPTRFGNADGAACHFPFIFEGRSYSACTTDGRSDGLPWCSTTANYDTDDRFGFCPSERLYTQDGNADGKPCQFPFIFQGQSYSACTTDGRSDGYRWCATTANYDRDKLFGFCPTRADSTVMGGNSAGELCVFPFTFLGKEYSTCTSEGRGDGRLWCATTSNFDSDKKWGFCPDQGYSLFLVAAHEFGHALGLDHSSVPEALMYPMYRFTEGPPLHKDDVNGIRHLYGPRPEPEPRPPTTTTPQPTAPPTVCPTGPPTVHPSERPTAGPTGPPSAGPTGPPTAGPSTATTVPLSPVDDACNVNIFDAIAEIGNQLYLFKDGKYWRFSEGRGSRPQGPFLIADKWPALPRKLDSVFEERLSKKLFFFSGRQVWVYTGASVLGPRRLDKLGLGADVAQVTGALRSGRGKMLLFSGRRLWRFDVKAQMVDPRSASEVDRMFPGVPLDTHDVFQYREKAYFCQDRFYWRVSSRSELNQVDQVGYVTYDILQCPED

As for `O=C(NO)C1(CS(=O)(=O)c2ccc(Oc3ccc(Cl)cc3)cc2)CCOCC1`, the Ki at Interstitial collagenase (pH 7.5, 25 °C) was found to be 800 nM; on Stromelysin-1 it was 17.5 nM; on Neutrophil collagenase, 1.8 nM.

For `O=C(NO)C1(CS(=O)(=O)c2ccc(Oc3ccccc3)cc2)CCN(CCc2ccccc2)CC1`, the Ki was determined as 700 nM on Interstitial collagenase (pH 7.5, 25 °C); 9 nM in assay [1]; 42.5 nM at Stromelysin-1; 0.3 nM in assay [2]; 3 nM at Neutrophil collagenase.

As to `C#CCN1CCC(CS(=O)(=O)c2ccc(Oc3ccccc3)cc2)(C(=O)NO)CC1`, the Ki on Interstitial collagenase (pH 7.5, 25 °C) worked out at 417 nM; in assay [1], 4.5 nM; on Stromelysin-1, 35 nM; on Collagenase 3, 0.55 nM; in assay [2], 0.25 nM.

On to `O=C(NO)C1(S(=O)(=O)c2ccc(Oc3ccccc3)cc2)CCN(CC2CC2)CC1` [1-(Cyclopropylmethyl)-N-hydroxy-4-[(4-phenoxyphenyl)sulfonyl]piperidine-4-carboxamide Hydrochloride], for which the inhibition constant (Ki) on Interstitial collagenase (pH 7.5, 25 °C) was 770 nM; at Collagenase 3, under 0.1 nM; in assay [2] it was under 0.1 nM.

Regarding `CC(=O)N1CCC(C(=O)NO)(S(=O)(=O)c2ccc(Oc3ccccc3)cc2)CC1` [1-Acetyl-N-hydroxy-4-{[4-(phenoxyphenyl]sulfonyl}-piperidine-4-carboxamide], the Ki at Interstitial collagenase is 464 nM; on Collagenase 3 it was under 0.1 nM.

With `O=C(NO)C1(S(=O)(=O)c2ccc(Sc3ccccc3)cc2)CCN(C2CC2)CC1` [1-Cyclopropyl-N-hydroxy-4-{[4-(phenylthio)phenyl]-sulfonyl}piperidine-4-carboxamide Hydrochloride], the Ki on Interstitial collagenase was over 10000 nM; in assay [1], 2.5 nM; at Stromelysin-1, 23.5 nM; on Collagenase 3 it was 0.2 nM; in assay [2], 0.1 nM; on Neutrophil collagenase, 3.5 nM.

For the compound `CC(=O)N1CCC(C(=O)NO)(S(=O)(=O)c2ccc(Sc3ccccc3)cc2)CC1` [1-acetyl-N-hydroxy-4-{[4-(phenylsulfanyl)benzene]sulfonyl}piperidine-4-carboxamide], the Ki on Interstitial collagenase was determined as 7300 nM; in assay [1], 8 nM; at Stromelysin-1, 23 nM; on Collagenase 3 it was 0.6 nM; in assay [2], 0.4 nM; on Neutrophil collagenase it was 5 nM.

Turning to `O=C(NO)C1(S(=O)(=O)c2ccc(Oc3ccccc3)cc2)CCN(C2CC2)CC1` [1-cyclopropyl-N-hydroxy-4-[(4-phenoxybenzene)sulfonyl]piperidine-4-carboxamide hydrochloride], the Ki in assay [1] was 0.6 nM; at Stromelysin-1, 0.3 nM; in assay [2], 0.2 nM.

As to `CCN1CCC(C(=O)NO)(S(=O)(=O)c2ccc(Sc3ccccc3)cc2)CC1` [1-ethyl-N-hydroxy-4-{[4-(phenylsulfanyl)benzene]sulfonyl}piperidine-4-carboxamide hydrochloride], the figures for the Ki (on Interstitial collagenase; at Collagenase 3; in assay [2]) were over 10000 nM, 0.8 nM and 0.8 nM, respectively.

Turning to `C#CCN1CCC(CS(=O)(=O)c2ccc(Oc3ccc(C)c(C)c3)cc2)(C(=O)NO)CC1` [4-({[4-(3,4-Dimethylphenoxy)phenyl]sulfonyl}methyl)-N-hydroxy-1-prop-2-ynylpiperidine-4-carboxamide Hydrochloride], the Ki in assay [1] turned out to be 7 nM; on Stromelysin-1, 18.1 nM; at Collagenase 3, 0.8 nM; in assay [2] it was 0.9 nM.

For the compound `O=C(NO)C1(S(=O)(=O)c2ccc(Oc3ccc(Cl)cc3)cc2)CCOCC1` [4-{[4-(4-chlorophenoxy)benzene]sulfonyl}-N-hydroxyoxane-4-carboxamide], the inhibition constant Ki was 18.1 nM at Stromelysin-1 and under 0.1 nM in assay [2].

With `CN1CCC(C(=O)NO)(S(=O)(=O)c2ccc(Sc3ccccc3)cc2)CC1` [N-Hydroxy-1-methyl-4-{[4-(phenylthio)phenyl]sulfonyl}-piperidine-4-carboxamide Hydrochloride], the Ki is over 10000 nM at Interstitial collagenase; 9.4 nM in assay [1]; 39.3 nM on Stromelysin-1; 0.68 nM at Collagenase 3; 0.5 nM in assay [2].

Take `C#CCN1CCC(C(=O)NO)(S(=O)(=O)c2ccc(Oc3ccccc3)cc2)CC1` [N-Hydroxy-4-{[4-(phenoxyphenyl]sulfonyl}-1-(2-propynyl)4-piperidinecarboxamide, Monohydrochloride]: the Ki on Interstitial collagenase (pH 7.5, 25 °C) turned out to be 274 nM; in assay [1], 0.4 nM; at Stromelysin-1, 12.6 nM; at Collagenase 3, 0.22 nM; in assay [2], 0.13 nM.

For the compound `COCCN1CCC(C(=O)NO)(S(=O)(=O)c2ccc(Oc3ccccc3)cc2)CC1` [N-hydroxy-1-(2-methoxyethyl)-4-[(4-phenoxybenzene)sulfonyl]piperidine-4-carboxamide hydrochloride], the Ki was 350 nM at Interstitial collagenase (pH 7.5, 25 °C); 0.7 nM in assay [1]; 0.3 nM at Stromelysin-1; 0.1 nM on Collagenase 3; 0.1 nM in assay [2].

Consider `COCCN1CCC(C(=O)NO)(S(=O)(=O)c2ccc(Sc3ccccc3)cc2)CC1` [N-hydroxy-1-(2-methoxyethyl)-4-{[4-(phenylsulfanyl)benzene]sulfonyl}piperidine-4-carboxamide hydrochloride], for which the Ki at Interstitial collagenase is over 10000 nM; in assay [1] it was 3 nM; at Stromelysin-1, 20 nM; at Collagenase 3 it was 0.5 nM; in assay [2], 0.3 nM; at Neutrophil collagenase, 4 nM.

Take `COc1cccc(CN2CCC(CS(=O)(=O)c3ccc(Oc4ccccc4)cc3)(C(=O)NO)CC2)c1` [N-hydroxy-1-[(3-methoxyphenyl)methyl]-4-{[(4-phenoxybenzene)sulfonyl]methyl}piperidine-4-carboxamide hydrochloride]: the inhibition constant (Ki) is 330 nM at Interstitial collagenase (pH 7.5, 25 °C); 1.1 nM in assay [1]; 18.1 nM at Stromelysin-1; 0.4 nM on Collagenase 3; 0.2 nM in assay [2].

For `CS(=O)(=O)N1CCC(C(=O)NO)(S(=O)(=O)c2ccc(Oc3ccccc3)cc2)CC1` [N-hydroxy-1-methanesulfonyl-4-[(4-phenoxybenzene)sulfonyl]piperidine-4-carboxamide], the Ki on Interstitial collagenase is 800 nM; in assay [1], 1 nM; at Collagenase 3 it was 0.5 nM; in assay [2] it was 0.3 nM.

As to `CS(=O)(=O)N1CCC(C(=O)NO)(S(=O)(=O)c2ccc(Sc3ccccc3)cc2)CC1` [N-hydroxy-1-methanesulfonyl-4-{[4-(phenylsulfanyl)benzene]sulfonyl}piperidine-4-carboxamide], the Ki at Interstitial collagenase is over 10000 nM; in assay [1] it was 14.7 nM; at Stromelysin-1, 32 nM; at Collagenase 3, 2.6 nM; in assay [2], 2 nM; on Neutrophil collagenase, 4 nM.

For `CN1CCC(C(=O)NO)(S(=O)(=O)c2ccc(Oc3ccccc3)cc2)CC1` [N-hydroxy-1-methyl-4-[(4-phenoxybenzene)sulfonyl]piperidine-4-carboxamide hydrochloride], the Ki was 464 nM at Interstitial collagenase (pH 7.5, 25 °C); 0.29 nM in assay [1]; 0.1 nM on Collagenase 3; under 0.1 nM in assay [2].

For the compound `O=C(CS(=O)(=O)c1ccc(Oc2ccccc2)cc1)NO` [N-hydroxy-2-[(4-phenoxybenzene)sulfonyl]acetamide], the Ki on Interstitial collagenase came to 6600 nM; at Collagenase 3, 5.1 nM; in assay [2], 2.6 nM.

For `CC(C)(C(=O)NO)S(=O)(=O)c1ccc(Oc2ccccc2)cc1` [N-hydroxy-2-methyl-2-[(4-phenoxybenzene)sulfonyl]propanamide], the Ki stood at 220 nM on Interstitial collagenase, 0.25 nM at Collagenase 3 and 0.1 nM in assay [2].

On to `C=CCN1CCC(C(=O)NO)(S(=O)(=O)c2ccc(Sc3ccccc3)cc2)CC1` [N-hydroxy-4-{[4-(phenylsulfanyl)benzene]sulfonyl}-1-(prop-2-en-1-yl)piperidine-4-carboxamide hydrochloride], for which the Ki at Interstitial collagenase was over 10000 nM; on Collagenase 3 it was 0.3 nM; in assay [2], 0.15 nM.

In the case of `C#CCN1CCC(C(=O)NO)(S(=O)(=O)c2ccc(Sc3ccccc3)cc2)CC1` [N-hydroxy-4-{[4-(phenylsulfanyl)benzene]sulfonyl}-1-(prop-2-yn-1-yl)piperidine-4-carboxamide hydrochloride], the Ki at Interstitial collagenase worked out at 8660 nM; on Stromelysin-1, 13 nM; in assay [2] it was 0.33 nM; at Neutrophil collagenase, 1.8 nM.

Regarding `CC(C)(C)OC(=O)N1CCC(CS(=O)(=O)c2ccc(Oc3ccccc3)cc2)(C(=O)NO)CC1` [tert-Butyl 4-[(Hydroxyamino)carbonyl]-4-{[(4-phenoxyphenyl)sulfonyl]methyl}piperidine-1-carboxylate], the Ki on Interstitial collagenase (pH 7.5, 25 °C) stood at 475 nM; at Collagenase 3, 0.2 nM; in assay [2], 0.2 nM.

Regarding `CC(C)(C)OC(=O)N1CCC(C(=O)NO)(S(=O)(=O)c2ccc(Oc3ccccc3)cc2)CC1` [tert-butyl 4-(hydroxycarbamoyl)-4-[(4-phenoxybenzene)sulfonyl]piperidine-1-carboxylate], the Ki on Interstitial collagenase (pH 7.5, 25 °C) amounted to 1140 nM; on Collagenase 3, 0.3 nM; in assay [2] it was 0.2 nM.
